Laboratory results: US20140094413A1, “HEPATOCYTE GROWTH FACTOR (HGF) MIMICS AS THERAPEUTIC AGENTS” (WASHINGTON STATE UNIVERSITY, priority 2012, published 2014)
“And” between values parts separate entries of the source, which are not always exact repeats. Identical values can stand only once. Where a SMILES comes first, the peptide text is derived from it. [ ]: non-standard residue; d: D form. The star is where a group is joined. Nle = CCCC[C@H](N)C(=O)O; Hexanoyl = CCCCCC(=O)*; Ahx = NCCCCCC(=O)O

Tests used:
Assay type in all cases: cell-based, rat
hippocampal neurons [1] = experiment: Spinogenesis in mRFP-β-actin transfected dissociated hippocampal neurons; details: for Spine numbers (spinogenesis) vs vehicle: 1 μM as printed in FIG. 34 legend; for Number of spines per 50 μm dendrite length: 10^−10 M; for Increase in the number of spines vs vehicle: 5 day treatment; for Spine density, dose dependence: 5 day stimulation, wide range of concentrations
Method: (§1) Hippocampal neurons (2×10^5 cells per square cm) were cultured from P1 Sprague Dawley rats on plates coated with poly-L-lysine from Sigma (St. Louis, Mo.; molecular weight 300,000). Hippocampal neurons were maintained in Neurobasal A media from Invitrogen (Carlsbad, Calif.) supplemented with B27 from Invitrogen, 0.5 mM L-glutamine, and […] cytosine-D-arabinofuranoside from Sigma added at 2 days in vitro. Hippocampal neurons were then cultured a further 3-7 days, at which time they were either transfected or treated with various pharmacological reagents as described in (Wayman, Davare et al. 2008).
(§2) Neurons were transfected with mRFP-β-actin on day in vitro 6 (DIV6) using LipofectAMINE™ 2000 (Invitrogen) according to the manufacturer's protocol. This protocol yielded the desired 3-5% transfection efficiency thus enabling the visualization of individual neurons. Higher efficiencies obscured the dendritic arbor of individual neurons. Expression of fluorescently tagged actin allowed clear visualization of dendritic spines, as dendritic spines are enriched in actin. […] On DIV 12 the neurons were fixed (4% paraformaldehyde, 3% sucrose, 60 mM PIPES, 25 mM HEPES, 5 mM EGTA, 1 mM MgCl2, pH 7.4) for 20 min at room temperature and mounted. Slides were dried for at least 20 hours at 4° C. and fluorescent images were obtained with Slidebook 4.2 Digital Microscopy Software driving an Olympus IX81 inverted confocal microscope with a 60× oil immersion lens, NA 1.4 and resolution 0.280 μm Dendritic spine density was measured on primary and secondary dendrites at a distance of at least 150 μm from the soma. Five 50 μm long segments of dendrite from at least 10 neurons per data point were analyzed for each data point reported. Each experiment was repeated at least three times using independent culture preparations. Dendrite length was determined using the National Institutes of Health's Image J 1.41o program (NIH, Bethesda, Md.) and the neurite tracing program Neuron J (Meijering, Jacob et al. 2004) Spines were manually counted.
as §1, with “centimeter)” for “cm)”, “P1-2” for “P1”, “the text or figure legends.” for “(Wayman, Davare et al. 2008).”
as §2, with “DIV12” for “DIV 12”, “Dendrite length was determined using the National Institutes of Health's Image J 1.41o program (NIH, Bethesda, Md.) and the neurite tracing program Neuron J (Meijering, Jacob et al. 2004) Spines were manually counted.” left out

hippocampal neurons [2] = experiment: Immunocytochemistry: correlation of spines with synaptic markers; details: 10^−12 M, 5 days
Method: (§3) Transfected neurons were treated, fixed and stained. Briefly, cells were permeablized with 0.1% Triton X-100 detergent (Bio-Rad; Hercules, Calif.) for 10 minutes. An 8% bovine serum albumin (Intergen Company; Burlington, Mass.) in PBS was used to prevent non-specific binding for one hour at R.T.; Primary antibody incubations were at a 1:2500 dilution (see below) in 1% BSA in PBS at 4° C. overnight. Secondary antibody, 1:3000 Alexafluor 488 goat-anti-mouse (Invitrogen: Carlsbad, Calif.) was applied for two hours at room temperature. Coverslips were mounted with ProLong Gold anti-fade reagent (Invitrogen; Carlsbad, Calif.) and all washes were done with PBS. Imaging and analysis were performed as described above. For presynaptic excitatory transmission the VGLUT1 (Synaptic Systems, Goettingen, Germany) marker (Balschun, Moechars et al.) was employed and for general presynaptic transmission synapsin1 (Synaptic Systems, Goettingen, Germany) (Ferreira and Rapoport 2002) was applied. A postsynaptic function was established by PSD-95 (Milipore, Billerica, Mass.) (El-Husseini, Schnell et al. 2000). In each instance the total number of spines was counted for the treatment groups, control, Nle1-AngIV and Dihexa, to ensure an active phenotype. The total number of actin enriched spines adjacent to VGLUT1 or Synapsin were counted and converted to a percentage as the percent correlation of treatment-induced spines to presynaptic markers is a strong indicator of ability to transmit excitatory signals.
as §3, with “fixed and stained as previously described in Chapter two. Briefly, cells” for “fixed and stained. Briefly, cells”, “enriched spines (red) adjacent to” for “enriched spines adjacent to”

hippocampal neurons [3] = experiment: Whole-cell recordings of mEPSCs in dissociated hippocampal neurons; parameters: unit not given beside the values; details: 5 days
[4] = 10^−12 M, acute 30 minute application on DIV 12

| Compound | Concentration active in stimulating synaptogenesis (hippocampal neurons [1]) | Spine numbers (spinogenesis) vs vehicle (hippocampal neurons [1]) | Number of spines per 50 μm dendrite length (hippocampal neurons [1]; 5 days) | Average spine head width (hippocampal neurons [1]; 10^−12 M) | Increase in the number of spines vs vehicle (hippocampal neurons [1]; 10^−12 M) | Mean spine numbers per 50 μm dendrite length (hippocampal neurons [1]; [4]) | Spine density, dose dependence (hippocampal neurons [1]) | % Correlation PSD-95 (hippocampal neurons [2]) | % Correlation Synapsin (hippocampal neurons [2]) | % Correlation VGLUT1 (hippocampal neurons [2]) | Number of spines/50 μm (PSD-95 experiment) (hippocampal neurons [2]) | Number of spines/50 μm (Synapsin experiment) (hippocampal neurons [2]) | Number of spines/50 μm (VGLUT1 experiment) (hippocampal neurons [2]) | mEPSC mean frequency (hippocampal neurons [3]; 10^−12 M (each)) | Mean spine numbers per 50 μm dendrite length (hippocampal neurons [1]; HGF 2.5 ng/ml (sub-threshold), 5 days) | Mean spine numbers per 50 μm dendrite length (hippocampal neurons [1]; HGF 5 ng/ml, 5 days) | Mean spine numbers per 50 μm dendrite length (hippocampal neurons [1]; HGF 10 ng/ml, 5 days) | Mean spine numbers per 50 μm dendrite length (hippocampal neurons [1]; HGF 20 ng/ml, 5 days) | mEPSC mean frequency (hippocampal neurons [3]; HGF 10 ng/ml) |
| --- | --- | --- | --- | --- | --- | --- | --- | --- | --- | --- | --- | --- | --- | --- | --- | --- | --- | --- | --- |
| CCCCCC(=O)N[C@@H](Cc1ccc(O)cc1)C(=O)N[C@H](C(=O)NCCCCCC(N)=O)[C@@H](C)CC [Dihexa, N-hexanoic-Tyr-Ile-(6)-aminohexanoic amide] (Hexanoyl-Tyr-Ile-[Ahx]-NH2) | 10^−12 M | dramatic increase in spine numbers | 11 spines per 50 μm dendrite length | 0.80 μm | ~3 fold | 23.9 spines per 50 μm dendrite length | dose-dependently stimulate spinogenesis | 98.71% | 96.3% | 94.4% | 43 spines/50 μm | 37 spines/50 μm | 44.2 spines/50 μm and 44 spines/50 μm | 6.75±0.99 and 8.25±0.56 |  |  |  |  |  |
| CCCC[C@H](N)C(=O)N[C@@H](Cc1ccc(O)cc1)C(=O)N[C@H](C(=O)N[C@@H](Cc1c[nH]cn1)C(=O)N1CCC[C@H]1C(=O)N[C@@H](Cc1ccccc1)C(=O)O)[C@@H](C)CC [Nle1-AngIV, reference compound] (H-[Nle]YIHPF-OH; N-terminus and C-terminus assumed) |  | dramatic increase in spine numbers | 22 spines per 50 μm dendrite length | 0.87 μm | greater than 2 fold | 2.6 spines per 50 μm dendrite length | dose-dependently stimulate spinogenesis | 97.38% | 94.2% | 95.1% | 36 spines/50 μm | 31 spines/50 μm | 39.4 spines/50 μm and 39 spines/50 μm |  |  |  |  |  |  |
| HGF: Hepatocyte growth factor, recombinant, purchased from R&D Systems |  |  |  |  |  |  |  |  |  |  |  |  |  |  | 18.6 spines per 50 μm dendrite leng and 16.5 spines per 50 μm dendrite leng | 24.7 spines per 50 μm dendrite leng | 27.5 spines per 50 μm dendrite leng and 29.3 spines per 50 μm dendrite leng | 27.0 spines per 50 μm dendrite leng | 7.09±0.53 and 9.66±0.20 |
